Results published in US20030013770A1, “Aminobenzophenones as inhibitors of il 1b and tnf” (priority 2001, published 2003).

Columns and labels:
Format in all cases: cell-based
IL-1β = test: Inhibition of IL-1β secretion in LPS stimulated peripheral blood mononuclear cells; conditions: PBMC; LPS stimulated human peripheral blood mononuclear cells; 18 hours; ELISA of medium; read-out: The median inhibition concentration (IC50, nM) of IL-1β
Method: (§1) To study the effect of the compound of the present invention in vitro the inhibition of the IL-1β and TNF-α secretion was measured using the following procedure:
(§2) Cytokine production was measured in the media from lipopolysaccharide (LPS) stimulated peripheral blood mononuclear cells. The mononuclear cells were isolated from human peripheral blood by Lymphoprep® (Nycomed, Norway) fractionation and suspended in RPMI 1640 (growth medium) with foetal calf serum (FCS, 2%), at a concentration of 5×10^5 cells/ml. The cells were incubated in 24-well tissue culture plates in 1 ml aliquots. Test compounds were dissolved in dimethylsulfoxide (DMSO, 10 mM) and were diluted with the medium. Compounds were added to the cells for 30 minutes, then LPS ([…] final concentration) was added. The plates were incubated for 18 hours, and the concentration of IL-1β and TNF-α in the medium was determined by enzyme-linked immunosorbent assays. The median inhibitory concentrations (IC50) of the compounds were calculated.

TNF-α = test: Inhibition of TNF-α secretion in LPS stimulated peripheral blood mononuclear cells; conditions: PBMC; LPS stimulated human peripheral blood mononuclear cells; 18 hours; ELISA of medium; read-out: The median inhibition concentration (IC50, nM) of TNF-α
Method: as §1, §2

PMN-superoxide = test: Inhibition of PMN (polymorphonuclear) superoxide secretion; conditions: human PMN granulocytes primed with TNF-α, stimulated with fMLP; reduction of ferricytochrome C; read-out: The median inhibition concentration (IC50, nM) of PMN-superoxide
Method: The compounds of the present invention also show similar activities in the ability to inhibit PMN (polymorphonuclear) superoxide secretion which is also indicative of potentially useful anti-inflammatory drugs. The compounds were tested using the following procedure:
Human polymorphonuclear (PMN) granulocytes were isolated from human blood by dextran sedimentation, Lymphoprep® fractionation and hypotonic lysis of contaminating erythrocytes. Superoxide anion generation was measured as the superoxide dismutase inhibitable reduction of ferricytochrome C (Madhu, S. B. et al, Inflammation, 16, 241, (1992)). The cells were suspended in Hanks' balanced salt solution, and incubated for 10 minutes at 37° C. with test compounds. The cells were primed by the addition of TNF-α (3 ng/ml final concentration) for 10 minutes, and then ferricytochrome C, (final concentration 750 μg/ml), bovine serum albumin (BSA, final concentration 1 mg/ml) and formyl-methionyl-leucyl-phenylalanine (fMLP, final concentration 10^−7 M) were added for 3 minutes. The cells were chilled on ice, and were spun down. The optical densities in the cell-free supernatant was measured in a spectrophotometer. The median inhibitory concentration (IC50) of the compounds was calculated.

Structure (SMILES)	IC50 (IL-1β) [nM]	IC50 (TNF-α) [nM]	IC50 (PMN-superoxide) [nM]
Cc1ccccc1C(=O)c1ccc(Nc2cccc(Cl)c2)cc1Cl [Compound 109, 2-Chloro-4-(3-chloro-phenylamino)-2′-methylbenzophenone]	50	7.9	20
Cc1cc(F)ccc1Nc1ccc(C(=O)c2ccccc2C)c(Cl)c1 [Compound 116, 2-Chloro-4-(4-fluoro-2-methyl-phenylamino)-2′-methylbenzophenone]	32	7.9	3.7
Cc1ccccc1C(=O)c1ccc(Nc2ccc(Cl)cc2)cc1Cl [Compound 119, 2-Chloro-4-(4-chloro-phenylamino)-2′-methylbenzophenone]	40	16	5
Cc1ccc(F)cc1Nc1ccc(C(=O)c2ccccc2C)c(Cl)c1 [Compound 130, 2-Chloro-4-(5-fluoro-2-methyl-phenylamino)-2′-methylbenzophenone]	40	6.3	50
Cc1cc(Br)ccc1Nc1ccc(C(=O)c2ccccc2C)c(Cl)c1 [Compound 136, 4-(4-Bromo-2-methyl-phenylamino)-2-chloro-2′-methylbenzophenone]	100	8	100

Second part, the compound after the results:

IC50 (IL-1β) [nM]	IC50 (TNF-α) [nM]	IC50 (PMN-superoxide) [nM]	Structure (SMILES)
13	4	6.3	Cc1ccccc1Nc1ccc(C(=O)c2ccccc2C)c(Cl)c1 [Compound 102, 2-Chloro-2′-methyl-4-(2-methyl-phenylamino)benzophenone]
25	4	13	Cc1ccccc1C(=O)c1ccc(Nc2ccccc2F)cc1Cl [Compound 105, 2-Chloro-4-(2-fluoro-phenylamino)-2′-methylbenzophenone]
13	4	13	Cc1ccccc1C(=O)c1ccc(Nc2cccc(F)c2C)cc1Cl [Compound 131, 2-Chloro-4-(3-fluoro-2-methyl-phenylamino)-2′-methylbenzophenone]
13	7.1	5	Cc1ccccc1C(=O)c1ccc(Nc2ccccc2N)cc1Cl [ref. A), 4-(2-Aminophenylamino)-2-chloro-2′-methylbenzophenone, reference compound]
